Measurements reported in PubChem BioAssay AID1745863.
pEC50: −log10 of the molar value.

These molecules were tested against Cationic amino acid transporter 3 (Homo sapiens) (UniProt Q8WY07) (assay: SLC7A3 cationic amino acid substrate potency, dose response, HEK293 JumpIn overexpressing cells, membrane potential dye (AID 1745863)). Details: HEK293 JumpIn SLC7A3 OE, membrane potential dye FLIPR;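 active = compound giving a dose-dependent response in SLC7A3-expressing cells, absent in control cells, with a fitted EC50; inactive = the rest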.
Chain of Cationic amino acid transporter 3 (Homo sapiens) (Q8WY07 whole entry, looked up): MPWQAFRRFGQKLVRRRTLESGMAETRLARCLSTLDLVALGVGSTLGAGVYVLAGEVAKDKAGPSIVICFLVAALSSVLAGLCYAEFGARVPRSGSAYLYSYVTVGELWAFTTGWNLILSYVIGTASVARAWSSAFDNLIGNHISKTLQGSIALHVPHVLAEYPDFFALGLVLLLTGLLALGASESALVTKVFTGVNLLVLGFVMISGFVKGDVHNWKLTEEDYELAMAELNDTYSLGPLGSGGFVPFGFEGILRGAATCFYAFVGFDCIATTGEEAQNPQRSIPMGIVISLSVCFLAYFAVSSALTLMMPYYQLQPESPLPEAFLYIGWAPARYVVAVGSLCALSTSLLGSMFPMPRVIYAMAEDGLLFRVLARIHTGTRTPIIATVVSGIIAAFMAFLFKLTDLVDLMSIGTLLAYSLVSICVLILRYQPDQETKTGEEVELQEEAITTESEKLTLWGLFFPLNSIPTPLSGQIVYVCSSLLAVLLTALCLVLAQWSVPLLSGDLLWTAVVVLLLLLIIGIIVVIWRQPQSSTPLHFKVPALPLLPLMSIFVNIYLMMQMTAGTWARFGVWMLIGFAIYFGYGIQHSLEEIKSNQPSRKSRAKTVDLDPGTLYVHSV

pEC50, active:
NCCC[C@H](N)C(=O)O 3.63
NCCCC[C@H](N)C(=O)O 3.80
NC(N)=NCCC[C@H](N)C(=O)O 3.55
